Experimental data taken from the Kinase Knowledgebase extract (Sharma et al. 2016).

How the values were obtained:
CDK2 = CDK2 (UniProt P24941); assay: Enzyme Assay
EGFR (mouse) = EGFR (mouse) (UniProt P00533); details: 3t3

Row | Structure (SMILES) | IC50 (CDK2) | IC50 (EGFR (mouse))
1 | CN(C)S(=O)(=O)c1ccc2c(c1)/C(=C/c1[nH]cc3c1CCNC3=O)C(=O)N2 | 0.1 µM | > 20 µM
2 | O=C1Nc2ccc(Br)cc2/C1=C/c1[nH]cc2c1CCOC2=O | 0.24 µM | > 20 µM
3 | O=C1Nc2cc(Cl)ccc2/C1=C/c1[nH]cc2c1CCOC2=O | 0.41 µM | > 20 µM
4 | CNS(=O)(=O)c1ccc2c(c1)/C(=C/c1[nH]cc3c1CCNC3=O)C(=O)N2 | 0.009 µM | > 20 µM
5 | O=C1Nc2ccc(-c3ccccc3)cc2/C1=C/c1[nH]cc2c1CCOC2=O | 3.84 µM | > 20 µM
6 | COc1ccc2c(c1)NC(=O)/C2=C\c1[nH]cc2c1CCOC2=O | 1.55 µM | 
7 | NS(=O)(=O)c1ccc2c(c1)/C(=C/c1[nH]cc3c1CCNC3=O)C(=O)N2 | < 0.005 µM | > 20 µM
8 | COc1ccc(-c2ccc3c(c2)NC(=O)/C3=C\c2[nH]cc3c2CCOC3=O)cc1 | 1 µM | > 20 µM
9 | O=C1Nc2cc(-c3ccccc3)ccc2/C1=C/c1[nH]cc2c1CCOC2=O | > 10 µM | > 20 µM
10 | O=C1Nc2cc(Br)ccc2/C1=C/c1[nH]cc2c1CCOC2=O | 0.97 µM | > 20 µM
11 | O=C1Nc2cc(Br)ccc2/C1=C/c1[nH]cc2c1CCNC2=O | > 10 µM | > 20 µM
12 | O=C1Nc2ccc(-c3ccccc3)cc2/C1=C/c1[nH]cc2c1CCNC2=O | 3.2 µM | > 20 µM
13 | NS(=O)(=O)c1ccc2c(c1)/C(=C/c1[nH]cc3c1CCOC3=O)C(=O)N2 | 0.01 µM | > 20 µM
14 | O=C1Nc2cc(-c3ccc(F)cc3)ccc2/C1=C/c1[nH]cc2c1CCOC2=O | 1.06 µM | > 20 µM
15 | O=C1Nc2ccc(S(=O)(=O)Nc3ccccc3)cc2/C1=C/c1[nH]cc2c1CCOC2=O | 0.04 µM | > 20 µM
16 | CN(C)S(=O)(=O)c1ccc2c(c1)/C(=C/c1[nH]cc3c1CCOC3=O)C(=O)N2 | 0.03 µM | > 20 µM
17 | O=C1Nc2cc(-c3ccccc3)ccc2/C1=C/c1[nH]cc2c1CCNC2=O | 6.01 µM | > 20 µM
18 | COc1ccccc1-c1ccc2c(c1)NC(=O)/C2=C\c1[nH]cc2c1CCOC2=O | > 10 µM | > 20 µM
19 | O=C1Nc2ccc(S(=O)(=O)N3CCc4cc(Br)ccc43)cc2/C1=C/c1[nH]cc2c1CCOC2=O | 2.86 µM | > 20 µM
20 | O=C1Nc2cc(C(=O)O)ccc2/C1=C/c1[nH]cc2c1CCOC2=O | 1.08 µM | > 20 µM
21 | Cc1c(Br)ccc2c1/C(=C/c1[nH]cc3c1CCOC3=O)C(=O)N2 | 0.16 µM | > 20 µM
22 | COc1ccc2c(c1)/C(=C/c1[nH]cc3c1CCNC3=O)C(=O)N2 | 0.29 µM | > 20 µM
23 | COc1ccc2c(c1)/C(=C/c1[nH]cc3c1CCOC3=O)C(=O)N2 | 0.04 µM | > 20 µM
24 | O=C1Nc2ccc(C(=O)O)cc2/C1=C/c1[nH]cc2c1CCOC2=O | 0.004 µM | > 20 µM
25 | O=C1Nc2cc(-c3cccc(C(=O)O)c3)ccc2/C1=C/c1[nH]cc2c1CCOC2=O | 5.36 µM | 18.7 µM
26 | O=C1Nc2ccc(C(=O)N3CCOCC3)cc2/C1=C/c1[nH]cc2c1CCNC2=O | 0.56 µM | > 20 µM

Row | Structure (SMILES) | IC50 (CDK2) | IC50 (EGFR (mouse))
27 | O=C1Nc2c(Cl)cccc2/C1=C/c1[nH]cc2c1CCOC2=O | 2.58 µM | > 20 µM
28 | O=C1Nc2cccc(CCO)c2/C1=C/c1[nH]cc2c1CCOC2=O | 0.03 µM | > 20 µM
29 | CN(c1cccc(Cl)c1)S(=O)(=O)c1ccc2c(c1)/C(=C/c1[nH]cc3c1CCOC3=O)C(=O)N2 | 9.95 µM | > 20 µM
30 | COc1cccc(-c2ccc3c(c2)NC(=O)/C3=C\c2[nH]cc3c2CCOC3=O)c1 | > 10 µM | > 20 µM
31 | CC(=O)Nc1ccc2c(c1)NC(=O)/C2=C\c1[nH]cc2c1CCOC2=O | 7.86 µM | > 20 µM
32 | O=C1Nc2ccc(-c3cccc(C(=O)O)c3)cc2/C1=C/c1[nH]cc2c1CCOC2=O | 6.71 µM | > 20 µM
33 | Cc1cccc2c1/C(=C/c1[nH]cc3c1CCOC3=O)C(=O)N2 | 0.27 µM | > 20 µM
34 | O=C1Nc2ccc(Br)cc2/C1=C/c1[nH]cc2c1CCNC2=O | 0.53 µM | > 20 µM
35 | O=C1Nc2ccc(S(=O)(=O)Nc3cccc(Cl)c3)cc2/C1=C/c1[nH]cc2c1CCOC2=O | 0.49 µM | > 20 µM
36 | O=C1Nc2ccc(S(=O)(=O)N3CCc4ccccc4C3)cc2/C1=C/c1[nH]cc2c1CCOC2=O | 0.73 µM | > 20 µM
37 | O=C1Nc2ccc(C(=O)N3CCCC3)cc2/C1=C/c1[nH]cc2c1CCNC2=O | 0.07 µM | > 20 µM
38 | CNS(=O)(=O)c1ccc2c(c1C)/C(=C/c1[nH]cc3c1CCOC3=O)C(=O)N2 | 0.0055 µM | > 20 µM
39 | O=C1Nc2cc(F)ccc2/C1=C/c1[nH]cc2c1CCOC2=O | 0.36 µM | > 20 µM
40 | CNS(=O)(=O)c1ccc2c(c1)/C(=C/c1[nH]cc3c1CCOC3=O)C(=O)N2 | 0.005 µM | > 20 µM
41 | O=C1Nc2cccc(CCO)c2/C1=C/c1[nH]cc2c1CCNC2=O | 0.45 µM | > 20 µM
42 | O=C1Nc2cc(Cl)ccc2/C1=C/c1[nH]cc2c1CCNC2=O | 7.23 µM | > 20 µM
43 | Cc1c(Cl)ccc2c1/C(=C/c1[nH]cc3c1CCOC3=O)C(=O)N2 | 0.31 µM | > 20 µM
44 | O=C1Nc2ccc(F)cc2/C1=C/c1[nH]cc2c1CCNC2=O | 0.3 µM | > 20 µM
45 | O=C1Nc2cc(-c3cccnc3)ccc2/C1=C/c1[nH]cc2c1CCOC2=O | 5.69 µM | > 20 µM
46 | CN(C)C(=O)c1ccc2c(c1)/C(=C/c1[nH]cc3c1CCNC3=O)C(=O)N2 | 0.09 µM | > 20 µM
47 | O=C1Nc2ccc(S(=O)(=O)N3CCCc4ccccc43)cc2/C1=C/c1[nH]cc2c1CCOC2=O | 0.55 µM | > 20 µM
48 | CC(C)NS(=O)(=O)c1ccc2c(c1)/C(=C/c1[nH]cc3c1CCOC3=O)C(=O)N2 | 0.06 µM | > 20 µM
49 | O=C1Nc2ccc3c(c2/C1=C/c1[nH]cc2c1CCOC2=O)CCOS3(=O)=O | 0.13 µM | > 20 µM
50 | O=C1Nc2ccc(S(=O)(=O)N3CCc4ccccc43)cc2/C1=C/c1[nH]cc2c1CCOC2=O | 0.35 µM | > 20 µM
51 | O=C1Nc2ccc(Cl)cc2/C1=C/c1[nH]cc2c1CCOC2=O | 0.09 µM | > 20 µM
52 | O=C1Nc2ccc(F)cc2/C1=C/c1[nH]cc2c1CCOC2=O | 0.08 µM | > 20 µM
